According to the Kinase Knowledgebase extract (Sharma et al. 2016):

Legend:
Test in all cases: Enzyme Assay
[1] = target: PIK3CB (Human) (UniProt P42338)
[2] = target: PIK3CD (Human) (UniProt O00329)
[3] = target: PIK3CG (human) (UniProt P48736)
Chain of PIK3CG (human) (P48736 whole entry, looked up): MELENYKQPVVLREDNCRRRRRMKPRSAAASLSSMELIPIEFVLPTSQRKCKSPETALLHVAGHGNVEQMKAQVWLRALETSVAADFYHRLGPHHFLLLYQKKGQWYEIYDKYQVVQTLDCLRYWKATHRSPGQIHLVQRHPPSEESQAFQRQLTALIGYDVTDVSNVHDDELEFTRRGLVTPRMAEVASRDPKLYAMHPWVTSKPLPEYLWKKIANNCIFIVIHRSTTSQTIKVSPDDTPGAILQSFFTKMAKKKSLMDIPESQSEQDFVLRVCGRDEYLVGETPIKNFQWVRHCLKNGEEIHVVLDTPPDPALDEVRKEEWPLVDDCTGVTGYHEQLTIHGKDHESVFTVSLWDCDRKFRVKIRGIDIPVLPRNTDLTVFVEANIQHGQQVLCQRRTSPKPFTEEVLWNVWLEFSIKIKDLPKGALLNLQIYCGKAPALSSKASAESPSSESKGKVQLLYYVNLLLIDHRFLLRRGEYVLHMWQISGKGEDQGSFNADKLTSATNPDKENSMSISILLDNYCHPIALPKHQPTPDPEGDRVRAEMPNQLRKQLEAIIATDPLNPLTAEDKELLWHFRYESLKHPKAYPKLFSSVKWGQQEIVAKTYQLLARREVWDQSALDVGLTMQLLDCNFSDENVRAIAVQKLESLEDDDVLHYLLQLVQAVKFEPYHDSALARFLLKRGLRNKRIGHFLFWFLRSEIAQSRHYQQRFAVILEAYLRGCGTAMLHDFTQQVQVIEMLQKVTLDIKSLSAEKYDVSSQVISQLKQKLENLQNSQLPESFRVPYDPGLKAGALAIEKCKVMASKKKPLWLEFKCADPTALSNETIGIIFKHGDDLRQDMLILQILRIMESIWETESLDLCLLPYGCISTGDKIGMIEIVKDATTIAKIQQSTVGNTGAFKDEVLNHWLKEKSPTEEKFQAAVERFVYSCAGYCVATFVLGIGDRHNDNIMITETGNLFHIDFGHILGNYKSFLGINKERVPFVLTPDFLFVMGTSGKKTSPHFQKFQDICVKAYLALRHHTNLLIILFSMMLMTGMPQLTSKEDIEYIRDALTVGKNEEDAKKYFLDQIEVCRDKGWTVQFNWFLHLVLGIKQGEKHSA

Chain of PIK3CB (Human) (P42338 whole entry, looked up): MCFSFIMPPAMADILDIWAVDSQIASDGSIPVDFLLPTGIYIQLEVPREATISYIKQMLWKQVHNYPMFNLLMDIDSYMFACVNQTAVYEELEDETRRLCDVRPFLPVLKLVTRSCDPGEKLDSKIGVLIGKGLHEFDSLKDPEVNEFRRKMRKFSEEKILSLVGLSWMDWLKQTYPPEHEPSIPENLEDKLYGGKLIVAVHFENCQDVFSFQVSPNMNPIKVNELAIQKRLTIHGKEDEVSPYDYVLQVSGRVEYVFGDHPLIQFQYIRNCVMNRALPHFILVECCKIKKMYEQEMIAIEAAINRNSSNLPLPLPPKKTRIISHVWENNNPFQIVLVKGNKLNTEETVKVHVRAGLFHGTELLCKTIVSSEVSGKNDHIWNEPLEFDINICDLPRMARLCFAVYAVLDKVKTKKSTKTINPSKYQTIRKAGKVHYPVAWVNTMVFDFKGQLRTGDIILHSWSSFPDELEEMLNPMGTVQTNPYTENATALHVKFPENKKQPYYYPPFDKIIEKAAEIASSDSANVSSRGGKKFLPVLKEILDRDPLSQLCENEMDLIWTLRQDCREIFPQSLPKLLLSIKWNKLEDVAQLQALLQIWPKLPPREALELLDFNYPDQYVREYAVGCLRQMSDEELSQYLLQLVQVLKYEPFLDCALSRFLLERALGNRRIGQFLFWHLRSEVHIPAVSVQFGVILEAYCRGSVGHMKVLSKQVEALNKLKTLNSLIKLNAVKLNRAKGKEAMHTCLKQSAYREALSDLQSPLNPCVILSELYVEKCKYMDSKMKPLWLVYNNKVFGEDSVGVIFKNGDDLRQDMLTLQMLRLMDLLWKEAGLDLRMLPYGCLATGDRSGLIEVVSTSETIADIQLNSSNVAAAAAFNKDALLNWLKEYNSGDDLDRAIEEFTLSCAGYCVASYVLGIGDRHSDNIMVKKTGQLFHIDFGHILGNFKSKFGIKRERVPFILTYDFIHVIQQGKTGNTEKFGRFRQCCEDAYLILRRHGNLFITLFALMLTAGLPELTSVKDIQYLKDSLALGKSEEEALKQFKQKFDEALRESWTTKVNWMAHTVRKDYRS
Chain of PIK3CD (Human) (O00329 whole entry, looked up): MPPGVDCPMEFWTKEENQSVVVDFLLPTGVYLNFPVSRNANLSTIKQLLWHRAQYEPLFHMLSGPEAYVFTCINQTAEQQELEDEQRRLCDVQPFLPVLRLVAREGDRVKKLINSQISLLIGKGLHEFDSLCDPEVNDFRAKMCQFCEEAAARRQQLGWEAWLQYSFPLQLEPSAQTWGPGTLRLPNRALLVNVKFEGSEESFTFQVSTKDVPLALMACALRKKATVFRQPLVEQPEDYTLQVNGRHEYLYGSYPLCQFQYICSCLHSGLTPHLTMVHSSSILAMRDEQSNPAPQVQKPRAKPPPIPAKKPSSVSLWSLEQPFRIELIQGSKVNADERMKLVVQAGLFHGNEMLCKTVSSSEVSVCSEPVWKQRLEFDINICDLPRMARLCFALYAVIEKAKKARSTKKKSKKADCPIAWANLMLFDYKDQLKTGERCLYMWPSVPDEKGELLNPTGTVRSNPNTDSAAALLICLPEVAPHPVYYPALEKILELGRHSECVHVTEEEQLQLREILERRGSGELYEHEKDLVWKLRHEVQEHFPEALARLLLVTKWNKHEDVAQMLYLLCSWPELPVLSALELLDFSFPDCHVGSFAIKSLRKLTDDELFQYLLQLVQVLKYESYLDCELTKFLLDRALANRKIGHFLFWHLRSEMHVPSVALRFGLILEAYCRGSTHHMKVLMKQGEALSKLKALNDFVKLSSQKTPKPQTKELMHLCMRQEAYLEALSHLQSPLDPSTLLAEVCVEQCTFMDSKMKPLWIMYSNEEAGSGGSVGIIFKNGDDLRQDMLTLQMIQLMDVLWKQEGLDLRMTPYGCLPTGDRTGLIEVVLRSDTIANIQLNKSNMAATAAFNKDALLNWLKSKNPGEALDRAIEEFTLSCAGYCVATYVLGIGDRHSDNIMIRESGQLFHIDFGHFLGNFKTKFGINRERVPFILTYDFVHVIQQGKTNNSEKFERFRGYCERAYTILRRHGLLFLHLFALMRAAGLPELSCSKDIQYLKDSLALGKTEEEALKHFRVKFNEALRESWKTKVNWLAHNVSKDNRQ

| Structure (SMILES) | IC50 [1] [nM] | IC50 [2] [nM] | IC50 [3] [nM] |
| --- | --- | --- | --- |
| CCNC(=O)Nc1ccc(Cl)c(-n2c([C@H](C)Nc3ncnc(N)c3C#N)nc3cccc(Cl)c3c2=O)c1 |  |  | > 10000 |
| C[C@H](Nc1ncnc(N)c1C#N)c1nc2cccc(Cl)c2c(=O)n1-c1cccc(NC(=O)Nc2cccnc2C(F)(F)F)c1 | 23 | 11 | 3900 |
| N#Cc1c(N)nc(N)nc1N1CCC[C@H]1c1nc2c(Cl)ccc(Cl)c2c(=O)n1-c1cccc(C(N)=O)c1 | 51 | 2 | 1400 |

Other lines, results leading:

| IC50 [1] [nM] | IC50 [2] [nM] | IC50 [3] [nM] | Structure (SMILES) |
| --- | --- | --- | --- |
| 97 | 38 | 7800 | COCCNC(=O)Nc1cccc(-n2c([C@@H]3CCCN3c3ncnc(N)c3C#N)nc3cccc(Cl)c3c2=O)c1 |
| 420 | 49 | 7400 | N#Cc1c(N)ncnc1N1CCC[C@H]1c1nc2cccc(Cl)c2c(=O)n1-c1cccc(NC(=O)Nc2ccccn2)c1 |
